According to patent US9579316B2, “Salts of 2-amino-1-hydroxyethyl-8-hydroxyquinolin-2(1H)-one derivatives having both muscarinic receptor antagonist and β2 adrenergic receptor agonist activities” (priority 2013, dated 2017):

Experiments:
[1] = Thermogravimetric (TG) analysis; type: physicochemical; details: for TG analysis: temperature until which no significant changes are observed (then loss of mass / decomposition): heated at 10° C./min between 30 and 300° C., nitrogen flow
Protocol: Thermogravimetric analyses were recorded in a Mettler Toledo SDTA851e. Samples of 1-3 mg were weighted (using a microscale MX5, Mettler) 40 μL aluminium crucibles with a pinhole lid, and were heated at 10° C./min between 30 and 300° C., under nitrogen flow (50 mL/min). Data collection and evaluation was done with software STARe.

[2] = Differential scanning calorimetry (DSC) analysis; type: physicochemical
Protocol: DSC analyses were recorded either in a Mettler Toledo DSC822e or using a DSC-821 Mettler-Toledo, serial number 5117423874. In the case of a Mettler Toledo DSC822e equipment, samples of 1-3 mg were weighted (using a microscale MX5, Mettler) into 40 μL aluminium crucibles with a pinhole lid, and were heated, under nitrogen flow (50 mL/min), from 30 to 300° C. at a heating rate of 10° C./min. Data collection and evaluation was done with software STARe. In case of a DSC-821 Mettler-Toledo, serial number 5117423874 equipment, samples were weighed into an aluminium pan, an aluminium pinhole lid placed on top of the sample and compressed with a brass rod. Samples were equilibrated at 25° C. and heated at 10° C./min to 300° C. The instrument was calibrated using indium and zinc standards.

Compound | TG analysis: temperature until which no significant changes are observed (then loss of mass / decomposition) [1] | hygroscopicity (no solvent/water release in TG) ([1]; no change prior to 140° C., in particular at 80-100° C.) | stability (no conversion into other polymorphs, no decomposition below the DSC endotherm) [2] | DSC endothermic curve onset (possible decomposition of the salt) ([2]; heating rate 10° C./min) | DSC endothermic curve maximum (possible fusion/decomposition of the salt) ([2]; heating rate 10° C./min) [°C]
CN(CCCn1nnc2cc(CNC[C@H](O)c3ccc(O)c4[nH]c(=O)ccc34)ccc21)[C@H]1CC[C@H](OC(=O)C(O)(c2cccs2)c2cccs2)CC1.O=C1NS(=O)(=O)c2ccccc21 (relative stereo) [Example 1, trans-4-[{3-[5-({[(2R)-2-hydroxy-2-(8-hydroxy-2-oxo-1,2-dihydroquinolin-5-yl)ethyl]amino}methyl)-1H-1,2,3-benzotriazole-1-yl]propyl}(methyl)-amino]cyclohexyl hydroxy(di-2-thienyl)acetate saccharinate] | 130-140 °C | lack of hygroscopicity | high stability | about 170 °C | –
CN(CCCn1c(=O)sc2cc(CNC[C@H](O)c3ccc(O)c4[nH]c(=O)ccc34)ccc21)[C@H]1CC[C@H](OC(=O)C(O)(c2cccs2)c2cccs2)CC1.O=C(O)/C=C/C(=O)O [Example 2, trans-4-[{3-[6-({[(2R)-2-hydroxy-2-(8-hydroxy-2-oxo-1,2-dihydroquinolin-5-yl)ethyl]amino}methyl)-2-oxo-1,3-benzothiazole-3(2H)-yl]propyl}(methyl)amino]cyclohexyl hydroxy(di-2-thienyl)acetate fumarate] | about 140 °C | – | high stability | – | 134
